According to patent US20190142971A1, “FORMULATION AND DELIVERY OF MODIFIED NUCLEOSIDE, NUCLEOTIDE, AND NUCLEIC ACID COMPOSITIONS” (ModernaTX, Inc., priority 2013, published 2019):

Tested on: C57/BL6 mice
Test: Example 34: EPO mRNA in buffer IM or SC in mice, serum EPO (Table 60)
Format: in vivo
Conditions: dose 100 μg, 13 hours post injection
Procedure: Mice were intramuscularly or subcutaneously injected with 50 μl of the modified human EPO mRNA (h-EPO), modified luciferase mRNA (Luc) or the formulation buffer (F.Buffer) as described in the dosing chart Table 60. 13 hours post injection blood was collected and serum was analyzed to determine the amount human EPO for each mouse or rat.

## Luciferase: luciferase mRNA, SEQ ID NO: 14, Cap1, fully modified with 5-methylcytosine and pseudouridine
Mice IM
  Average Level in serum (human EPO): 0 pg/mL
Mice SC
  Average Level in serum (human EPO): 26.7 pg/mL
